Source: ChEMBL document CHEMBL1144299, “Quinazolinethiones and quinazolinediones, novel inhibitors of inosine monophosphate dehydrogenase: synthesis and initial structure-activity relationships” (Bioorg Med Chem Lett, 2005)

Columns and labels:
[1] = In vitro concentration required to inhibit peripheral blood mononuclear cell proliferation was determined; format: functional
[2] = biological target: Inosine-5'-monophosphate dehydrogenase 2 (Homo sapiens, UniProt P12268); assay: In vitro inhibitory concentration against inosine-5'-monophosphate dehydrogenase
[3] = Percent inhibition of inosine-5'-monophosphate dehydrogenase was determined at 1 uM concentration; format: functional
[4] = In vitro concentration required to inhibit peripheral blood mononuclear cell proliferation; Inactive; format: functional

| Structure (SMILES) | IC50 [1] | IC50 [2] | inhibition [3] | IC50 [4] |
| --- | --- | --- | --- | --- |
| COc1cc2[nH]c(=S)n(CCc3ccccn3)c(=O)c2cc1-c1cnco1 | 1000 nM | 91 nM | – | – |
| COc1cc2[nH]c(=O)n(CCc3ccncc3)c(=O)c2cc1-c1cnco1 | 1200 nM | 188 nM | – | – |
| COc1cc2nc(S)nc(O)c2cc1-c1cnco1 | – | 30 nM | – | – |
| COc1cc2[nH]c(=S)n(C)c(=O)c2cc1-c1cnco1 | 1100 nM | 17 nM | – | – |
| COc1cc2[nH]c(=S)n(CCN3CCOCC3)c(=O)c2cc1-c1cnco1 | 2760 nM | 71 nM | – | – |
| COc1cc2[nH]c(=S)n(C(C)C)c(=O)c2cc1-c1cnco1 | – | – | 27% | – |
| COc1cc2[nH]c(=S)n(Cc3ccncc3)c(=O)c2cc1-c1cnco1 | 4100 nM | 100 nM | – | – |
| COc1cc2[nH]c(=S)n(-c3cccnc3)c(=O)c2cc1-c1cnco1 | – | 1710 nM | – | – |
| COc1cc2[nH]c(=O)n(CCn3ccnc3)c(=O)c2cc1-c1cnco1 | 2400 nM | 86 nM | – | – |
| COc1cc2[nH]c(=S)n(CCc3ccncc3)c(=O)c2cc1-c1cnco1 | 780 nM | 13 nM | – | – |
| COc1cc2[nH]c(=O)n(CCc3c[nH]cn3)c(=O)c2cc1-c1cnco1 | – | 47 nM | – | Not Active |
| COc1cc2[nH]c(=O)n(CCN3CCOCC3)c(=O)c2cc1-c1cnco1 | 9130 nM | 297 nM | – | – |
| COc1cc2[nH]c(=S)n(CCCn3ccnc3)c(=O)c2cc1-c1cnco1 | 980 nM | 22 nM | – | – |
| COc1cc2[nH]c(=O)n(C)c(=O)c2cc1-c1cnco1 | 4000 nM | 104 nM | – | – |
| COc1cc2[nH]c(=S)n(CC(C)(C)C)c(=O)c2cc1-c1cnco1 | – | 821 nM | – | – |
